In patent US20250136578A1 (Kolm Therapeutics Inc., priority 2023, published 2025) one finds EC50 and IC50 data, which are given here for 12 compounds.

One test addresses AR / CBP ternary complex (Homo sapiens, UniProt P10275+Q92793). Nature of the test: Ternary complex formation assay (sandwich ELISA, AR capture, CBP antibody detection) in VCaP cell lysates. Particulars: treated 1.5 hours, rabbit CBP or p300 antibody detection, average, read-out: Average Ternary Complex. In kind it is cell-based. The gist of the method: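 VCaP cells in 5% charcoal-stripped FBS were cultured ≥3 days and then given bifunctional compound for 1.5 h. Lysates went onto AR-antibody-coated plates. Bound CBP (or p300) was detected with a rabbit antibody plus HRP anti-rabbit, using QuantaRed chemifluorescence (ex 570/em 585) read immediately, at 5 min and at 15 min.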
(ELISA stands for enzyme-linked immunosorbent assay.)

Another test has as its system VCaP cells. The test is described as follows: VCaP growth inhibition assay (CTG). The test is classed as cell-based. The note with it: Homo sapiens, 216 h, 30 pM R1881, 9 days. The method in brief: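 VCaP cells in phenol red-free DMEM with 5% charcoal-stripped serum were stimulated with 30 pM R1881 (final) and treated with compound from 100 nM to 10 fM final (1:5 dilutions) for 9 days at 37 °C. Viability was read by CellTiter-Glo luminescence, and IC50 came from 4-parameter logistic fits.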

AR / CBP ternary complex, sequence (P10275 whole entry): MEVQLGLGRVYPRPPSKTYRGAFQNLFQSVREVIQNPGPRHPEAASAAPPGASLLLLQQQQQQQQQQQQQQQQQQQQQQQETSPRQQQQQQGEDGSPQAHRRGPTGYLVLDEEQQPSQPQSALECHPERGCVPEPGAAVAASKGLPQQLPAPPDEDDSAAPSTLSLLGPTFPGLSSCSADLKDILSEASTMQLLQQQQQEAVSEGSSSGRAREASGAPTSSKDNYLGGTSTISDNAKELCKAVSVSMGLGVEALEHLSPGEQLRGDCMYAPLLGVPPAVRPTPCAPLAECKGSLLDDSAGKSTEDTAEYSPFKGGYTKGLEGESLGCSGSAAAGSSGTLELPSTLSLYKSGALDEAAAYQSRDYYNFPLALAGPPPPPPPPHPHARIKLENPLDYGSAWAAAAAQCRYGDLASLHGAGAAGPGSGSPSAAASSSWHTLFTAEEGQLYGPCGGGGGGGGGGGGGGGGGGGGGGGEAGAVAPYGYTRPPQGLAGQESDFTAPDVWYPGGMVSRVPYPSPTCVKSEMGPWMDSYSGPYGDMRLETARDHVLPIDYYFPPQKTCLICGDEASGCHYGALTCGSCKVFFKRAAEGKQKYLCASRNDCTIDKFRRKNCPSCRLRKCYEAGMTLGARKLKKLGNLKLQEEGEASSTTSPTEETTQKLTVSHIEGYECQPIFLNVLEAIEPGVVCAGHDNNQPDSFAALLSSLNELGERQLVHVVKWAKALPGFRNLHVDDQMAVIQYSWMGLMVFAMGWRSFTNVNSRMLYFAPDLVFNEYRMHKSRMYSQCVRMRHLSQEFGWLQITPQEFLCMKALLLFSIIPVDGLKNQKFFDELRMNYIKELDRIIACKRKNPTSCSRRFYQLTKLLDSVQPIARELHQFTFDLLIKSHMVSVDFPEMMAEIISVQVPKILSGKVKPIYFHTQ
AR / CBP ternary complex, sequence (Q92793 2-2442): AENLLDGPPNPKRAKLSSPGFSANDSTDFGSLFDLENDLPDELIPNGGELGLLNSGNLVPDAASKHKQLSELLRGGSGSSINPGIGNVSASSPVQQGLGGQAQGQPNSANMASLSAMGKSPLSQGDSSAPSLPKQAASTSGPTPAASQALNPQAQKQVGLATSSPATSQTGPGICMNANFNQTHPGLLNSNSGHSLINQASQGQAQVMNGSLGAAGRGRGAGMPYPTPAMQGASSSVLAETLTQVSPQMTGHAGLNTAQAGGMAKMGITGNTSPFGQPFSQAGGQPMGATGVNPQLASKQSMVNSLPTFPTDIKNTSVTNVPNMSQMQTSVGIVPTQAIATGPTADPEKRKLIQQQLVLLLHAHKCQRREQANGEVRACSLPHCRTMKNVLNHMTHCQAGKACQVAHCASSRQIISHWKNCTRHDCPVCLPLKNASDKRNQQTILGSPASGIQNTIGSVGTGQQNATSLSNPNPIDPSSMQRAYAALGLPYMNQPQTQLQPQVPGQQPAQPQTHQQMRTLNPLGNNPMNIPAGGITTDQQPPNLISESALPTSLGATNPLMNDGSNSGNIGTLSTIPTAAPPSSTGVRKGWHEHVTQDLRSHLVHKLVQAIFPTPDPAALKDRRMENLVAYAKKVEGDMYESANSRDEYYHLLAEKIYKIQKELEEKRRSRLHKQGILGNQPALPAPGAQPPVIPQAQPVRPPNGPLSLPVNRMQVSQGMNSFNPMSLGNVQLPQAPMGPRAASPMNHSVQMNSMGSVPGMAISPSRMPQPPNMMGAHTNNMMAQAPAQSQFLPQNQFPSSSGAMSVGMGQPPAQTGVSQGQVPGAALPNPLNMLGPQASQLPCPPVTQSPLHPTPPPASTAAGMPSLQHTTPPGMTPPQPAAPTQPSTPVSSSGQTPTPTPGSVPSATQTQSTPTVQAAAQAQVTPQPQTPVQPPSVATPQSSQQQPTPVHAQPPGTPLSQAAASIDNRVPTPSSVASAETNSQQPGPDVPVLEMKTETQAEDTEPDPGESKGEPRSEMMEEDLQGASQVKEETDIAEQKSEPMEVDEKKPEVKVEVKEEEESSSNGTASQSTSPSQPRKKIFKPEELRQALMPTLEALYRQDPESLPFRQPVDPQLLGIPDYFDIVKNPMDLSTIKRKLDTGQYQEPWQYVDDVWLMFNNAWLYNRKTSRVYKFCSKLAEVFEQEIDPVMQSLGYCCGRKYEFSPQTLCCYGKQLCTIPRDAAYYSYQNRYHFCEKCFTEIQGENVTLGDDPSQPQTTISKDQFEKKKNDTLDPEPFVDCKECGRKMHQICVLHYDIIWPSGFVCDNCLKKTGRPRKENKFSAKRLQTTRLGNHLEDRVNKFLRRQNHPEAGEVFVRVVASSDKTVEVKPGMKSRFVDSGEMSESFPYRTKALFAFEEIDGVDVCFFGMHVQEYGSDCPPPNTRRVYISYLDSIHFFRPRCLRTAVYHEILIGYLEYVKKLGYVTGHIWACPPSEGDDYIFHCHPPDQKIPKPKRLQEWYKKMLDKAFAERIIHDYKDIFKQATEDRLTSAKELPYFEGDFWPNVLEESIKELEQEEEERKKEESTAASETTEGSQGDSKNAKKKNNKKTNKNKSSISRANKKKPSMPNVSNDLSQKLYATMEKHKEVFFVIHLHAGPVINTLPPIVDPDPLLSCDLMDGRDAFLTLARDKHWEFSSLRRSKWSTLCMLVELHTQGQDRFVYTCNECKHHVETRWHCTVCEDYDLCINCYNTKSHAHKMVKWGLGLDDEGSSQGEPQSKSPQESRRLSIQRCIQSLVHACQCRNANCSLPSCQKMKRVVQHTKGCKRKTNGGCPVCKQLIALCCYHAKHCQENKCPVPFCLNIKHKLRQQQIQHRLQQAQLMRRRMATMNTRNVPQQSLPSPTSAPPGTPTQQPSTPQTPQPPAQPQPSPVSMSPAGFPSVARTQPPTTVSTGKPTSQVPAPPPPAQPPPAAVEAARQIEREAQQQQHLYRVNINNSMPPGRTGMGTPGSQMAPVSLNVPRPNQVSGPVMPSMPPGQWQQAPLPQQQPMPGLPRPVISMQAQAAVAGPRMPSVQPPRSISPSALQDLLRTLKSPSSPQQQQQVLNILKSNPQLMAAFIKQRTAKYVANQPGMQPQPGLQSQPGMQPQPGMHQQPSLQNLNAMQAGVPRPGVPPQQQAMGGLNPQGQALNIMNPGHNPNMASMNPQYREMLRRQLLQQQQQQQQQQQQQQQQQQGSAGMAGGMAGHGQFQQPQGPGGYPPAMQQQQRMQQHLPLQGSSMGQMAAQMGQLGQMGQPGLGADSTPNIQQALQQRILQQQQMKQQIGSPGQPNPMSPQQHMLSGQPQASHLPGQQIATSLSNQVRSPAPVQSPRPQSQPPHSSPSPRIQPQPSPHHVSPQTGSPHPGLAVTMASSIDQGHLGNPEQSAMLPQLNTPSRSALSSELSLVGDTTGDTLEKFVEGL

As a reminder, the IC50 is the concentration that gives 50% inhibition. A lower IC50 goes with greater potency. Consider `CC(=O)N1CCc2c(c(N3CCCc4cc(-c5cnn(C)c5)c(C(F)F)cc43)nn2[C@H]2CC[C@@H](C3CCC4(CC3)CN(c3ccc(C(=O)N[C@H]5CC[C@H](Oc6ccc(C#N)c(Cl)c6)CC5)nn3)C4)CC2)C1` [Compound 242, 6-[7-[4-[5-acetyl-3-[7-(difluoromethyl)-6-(1-methylpyrazol-4-yl)-3,4-dihydro-2H-quinolin-1-yl]-6,7-dihydro-4H-pyrazolo[4,3-c]pyridin-1-yl]cyclohexyl]-2-azaspiro[3.5]nonan-2-yl]-N-[4-(3-chloro-4-cyano-phenoxy)cyclohexyl]pyridazine-3-carboxamide], for which the EC50 at AR / CBP ternary complex is under 1 nM. Besides, the IC50 in the test with VCaP cells was in the range of 0.1 to 1 nM.

Take `Cn1cc(-c2cc3c(cc2C(F)F)N(c2cc(C4CCN(CC5CCN(c6ccc(C(=O)N[C@H]7CC[C@H](Oc8ccc(C#N)c(Cl)c8)CC7)nn6)CC5)CC4)c4c(c2)n(C)c(=O)n4C)CCC3)cn1` [Compound 33, N-[4-(3-chloro-4-cyano-phenoxy)cyclohexyl]-6-[4-[[4-[6-[7-(difluoromethyl)-6-(1-methylpyrazol-4-yl)-3,4-dihydro-2H-quinolin-1-yl]-1,3-dimethyl-2-oxo-benzimidazol-4-yl]-1-piperidyl]methyl]-1-piperidyl]pyridazine-3-carboxamide]: the EC50 on AR / CBP ternary complex was under 1 nM. The IC50 in the test on VCaP cells fell in the range of 0.1 to 1 nM.

`CC(=O)N1CCc2c(c(N3CCCc4cc(-c5cnn(C)c5)c(C(F)F)cc43)nn2[C@@H]2CCN(CC3CCN(c4ccc(C(=O)N[C@H]5CC[C@H](Oc6ccc(C#N)c(Cl)c6)CC5)nn4)CC3)C[C@H]2F)C1` [Compound 141, 6-[4-[[(3R,4R)-4-[5-acetyl-3-[7-(difluoromethyl)-6-(1-methylpyrazol-4-yl)-3,4-dihydro-2H-quinolin-1-yl]-6,7-dihydro-4H-pyrazolo[4,3-c]pyridin-1-yl]-3-fluoro-1-piperidyl]methyl]-1-piperidyl]-N-[4-(3-chloro-4-cyano-phenoxy)cyclohexyl]pyridazine-3-carboxamide]: the EC50 on AR / CBP ternary complex was under 1 nM. Also, the IC50 with VCaP cells is at most 0.1 nM.

Turning to `CC(=O)N1CCc2c(c(N3CCCc4cc(-c5cnn(C)c5)c(C(F)F)cc43)nn2[C@H]2CC[C@@H](OC3CCN(c4ccc(C(=O)N[C@H]5CC[C@H](Oc6ccc(C#N)c(Cl)c6)CC5)nn4)CC3)CC2)C1` [Compound 204, 6-[4-[4-[5-acetyl-3-[7-(difluoromethyl)-6-(1-methylpyrazol-4-yl)-3,4-dihydro-2H-quinolin-1-yl]-6,7-dihydro-4H-pyrazolo[4,3-c]pyridin-1-yl]cyclohexoxy]-1-piperidyl]-N-[4-(3-chloro-4-cyano-phenoxy)cyclohexyl]pyridazine-3-carboxamide], the EC50 at AR / CBP ternary complex was under 1 nM. Further, in the test on VCaP cells, the IC50 is at most 0.1 nM.

Turning to `CC(=O)N1CCc2c(c(N3CCCc4cc(-c5cnn(C)c5)c(C(F)F)cc43)nn2C2CC3(CCN(C4CCN(c5ccc(C(=O)N[C@H]6CC[C@H](Oc7ccc(C#N)c(Cl)c7)CC6)nn5)CC4)CC3)C2)C1` [Compound 239, 6-[4-[2-[5-acetyl-3-[7-(difluoromethyl)-6-(1-methylpyrazol-4-yl)-3,4-dihydro-2H-quinolin-1-yl]-6,7-dihydro-4H-pyrazolo[4,3-c]pyridin-1-yl]-7-azaspiro[3.5]nonan-7-yl]-1-piperidyl]-N-[4-(3-chloro-4-cyano-phenoxy)cyclohexyl]pyridazine-3-carboxamide], the EC50 at AR / CBP ternary complex is under 1 nM. Besides, the half-maximal inhibitory concentration (IC50) in the test on VCaP cells is at most 0.1 nM.

For the compound `C[C@@H]1CC(=O)Nc2cccc(N3CCCc4cc(-c5cnn(CC6CCN(c7ccc(C(=O)N[C@H]8CC[C@H](Oc9ccc(C#N)c(Cl)c9)CC8)nn7)CC6)c5)c(C(F)F)cc43)c2N1` [Compound 34, N-[4-(3-chloro-4-cyano-phenoxy)cyclohexyl]-6-[4-[[4-[7-(difluoromethyl)-1-[(4R)-4-methyl-2-oxo1,3,4,5-tetrahydro-1,5-benzodiazepin-6-yl]-3,4-dihydro-2H-quinolin-6-yl]pyrazol-1-yl]methyl]-1-piperidyl]pyridazine-3-carboxamide], the EC50 at AR / CBP ternary complex lay in the range of 1 to 10 nM. In addition, in the test on VCaP cells, the IC50 was in the range of 0.1 to 1 nM.

Turning to `CC(=O)N1CCc2c(c(N3CCCc4cc(C5CC5)ncc43)nn2C2CCN(CC3CCN(c4ccc(C(=O)N[C@H]5CC[C@H](Oc6ccc(C#N)c(Cl)c6)CC5)nn4)CC3)CC2)C1` [Compound 108, 6-[4-[[4-[5-acetyl-3-(6-cyclopropyl-3,4-dihydro-2H-1,7-naphthyridin-1-yl)-6,7-dihydro-4H-pyrazolo[4,3-c]pyridin-1-yl]-1-piperidyl]methyl]-1-piperidyl]-N-[4-(3-chloro-4-cyano-phenoxy)cyclohexyl]pyridazine-3-carboxamide], the EC50 at AR / CBP ternary complex was 1 to 10 nM. The same compound had an IC50 in the test on VCaP cells of 0.1 to 1 nM.

`C[C@@H]1CC(=O)Nc2cc(C3CCN(CC4CCN(c5ccc(C(=O)N[C@H]6CC[C@H](Oc7ccc(C#N)c(Cl)c7)CC6)nn5)CC4)CC3)cc(-c3ccc4c(cnn4C)c3)c2N1` [Compound 89]: the EC50 at AR / CBP ternary complex was under 1 nM. In the test on VCaP cells, the IC50 was at most 0.1 nM.

Regarding `CC(=O)N1CCc2c(c(-c3cccc4cc(C)ncc34)nn2C2CCN(CC3CCN(c4ccc(C(=O)N[C@H]5CC[C@H](Oc6ccc(C#N)c(Cl)c6)CC5)nn4)CC3)CC2)C1` [Compound 122, -[4-[[4-[5-acetyl-3-(3-methyl-8-isoquinolyl)-6,7-dihydro-4H-pyrazolo[4,3-c]pyridin-1-yl]-1-piperidyl]methyl]-1-piperidyl]-N-[4-(3-chloro-4-cyano-phenoxy)cyclohexyl]pyridazine-3-carboxamide], on AR / CBP ternary complex, the EC50 is under 1 nM. The compound further had an IC50 with VCaP cells of 0.1 to 1 nM.

Turning to `Cn1c(=O)sc2ccc(N3CCCc4cc(-c5ccc(CCC6CCN(c7ccc(C(=O)N[C@H]8CC[C@H](Oc9ccc(C#N)c(Cl)c9)CC8)nn7)CC6)nc5)ncc43)cc21` [Compound 57, N-[4-(3-chloro-4-cyano-phenoxy)cyclohexyl]-6-[4-[2-[5-[1-(3-methyl-2-oxo-1,3-benzothiazol-5-yl)-3,4-dihydro-2H-1,7-naphthyridin-6-yl]-2-pyridyl]ethyl]-1-piperidyl]pyridazine-3-carboxamide], at AR / CBP ternary complex, the EC50 was under 1 nM. In the test with VCaP cells, this compound gave an IC50 of 1 to 100 nM.

Take `Cc1noc(C)c1-c1ccc2c(c1)nc(C1CCCC(=O)N1c1ccc(F)c(F)c1)n2C1CCN(CC2CCN(c3ccc(C(=O)N[C@H]4CC[C@H](Oc5ccc(C#N)c(Cl)c5)CC4)nn3)CC2)CC1` (stereo partly drawn) [Compound 127, N-[4-(3-chloro-4-cyano-phenoxy)cyclohexyl]-6-[4-[[4-[2-[1-(3,4-difluorophenyl)-6-oxo-2-piperidyl]-5-(3,5-dimethylisoxazol-4-yl)benzimidazol-1-yl]-1-piperidyl]methyl]-1-piperidyl]pyridazine-3-carboxamide]: the EC50 on AR / CBP ternary complex is over 100 nM. This compound returned an IC50 in the test on VCaP cells of over 100 nM.

As to `CC(=O)N1CCc2c(c(N3CCCc4cc(-c5cnn(C)c5)c(C(F)F)cc43)nn2[C@H]2CC[C@@H](OC3CN(c4ccc(C(=O)N[C@H]5CC[C@H](Oc6ccc(C#N)c(Cl)c6)CC5)nn4)C3)CC2)C1` [Compound 223, 6-[3-[4-[5-acetyl-3-[7-(difluoromethyl)-6-(1-methylpyrazol-4-yl)-3,4-dihydro-2H-quinolin-1-yl]-6,7-dihydro-4H-pyrazolo[4,3-c]pyridin-1-yl]cyclohexoxy]azetidin-1-yl]-N-[4-(3-chloro-4-cyano-phenoxy)cyclohexyl]pyridazine-3-carboxamide], the EC50 at AR / CBP ternary complex was under 1 nM. In the test with VCaP cells, the IC50 was at most 0.1 nM.
